From US10030012B2, “Piperidin-1-yl and azepin-1-yl carboxylates as muscarinic M4 receptor agonists” (Heptares Therapeutics Limited, priority 2013, dated 2018) come the findings set out here.

The structures appear in SMILES notation.

The target in one assay is human M4 receptor (Homo sapiens (Human), UniProt P08173). The assay can be described thus: In vitro M4 functional assay (intracellular calcium, FLiPR Tetra). It counts as cell-based. The note with it: for EC50: CHOK1 cells stably expressing human M4 receptor and Gα16, calcium flux; for Emax: relative efficacy to an EC100 concentration of acetylcholine, read-out: M4 % RE. The protocol: (§1) In Vitro M4 &M2 Functional Assay
Chain of human M4 receptor (P08173 whole entry): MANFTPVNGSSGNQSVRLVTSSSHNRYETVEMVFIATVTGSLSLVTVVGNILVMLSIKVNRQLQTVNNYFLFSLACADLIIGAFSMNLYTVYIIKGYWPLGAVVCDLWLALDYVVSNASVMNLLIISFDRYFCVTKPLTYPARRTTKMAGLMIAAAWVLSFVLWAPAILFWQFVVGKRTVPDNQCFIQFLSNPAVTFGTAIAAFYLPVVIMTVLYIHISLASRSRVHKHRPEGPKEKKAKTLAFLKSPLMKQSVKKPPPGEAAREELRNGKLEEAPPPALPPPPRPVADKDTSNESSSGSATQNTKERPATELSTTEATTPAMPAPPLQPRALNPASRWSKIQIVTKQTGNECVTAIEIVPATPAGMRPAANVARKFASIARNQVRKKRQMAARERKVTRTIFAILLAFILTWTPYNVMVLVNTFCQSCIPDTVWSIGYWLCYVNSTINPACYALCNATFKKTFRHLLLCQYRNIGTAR
(§2) The functional activity of compounds at the M4 and M2 receptors was determined by measuring changes in the level of intracellular calcium ions caused by signalling cascades mediated by the receptor. Intracellular Calcium levels were measured using a calcium sensitive fluorescent dye, calcium 5 (Molecular Devices) The changes in fluorescence were monitored by a fluorescent imager, FLiPR Tetra (Molecular devices). Increases in intracellular calcium were readily detected upon activation of both receptors by the muscarinic receptor agonist Acetylcholine.
(§3) CHOK1 cells stably expressing human M4 or M2 receptor and co-expressing the accessory g-protein Gα16 were routinely grown as monolayers in Hams-F12 medium (Invitrogen) supplemented with 10% foetal bovine serum (FBS) (Hyclone), 500 ug/mL Geneticin and 250 ug/mL zeocin (both invitrogen) in 5% CO2 at 37° C. Once confluent is cells cryopreserved by freezing at −186° C. in freezing solution (90% FBS 10% DMSO) (Sigma-Aldrich Co.). Twenty-four hours prior to testing cells resuscitated and freezing media removed via centrifugation, cells then seeded in a black walled clear bottom 384 well plates (Corning) at a density of 15,000 cells/well in Hams F12 media supplemented with 10% FBS. On the day of assay, growth media was removed and replaced with 63 μl of Calcium 5 dye solution (Molecular Devices) in assay buffer (HBSS, 20 mM HEPES, 0.1% BSA, 1 mM Probenecid pH7.4 (Sigma-Aldrich Co.)) per well (each vial of Calcium 5 resuspended in 27 mL of assay buffer). Cells were then incubated for 45 minutes at 37° C., 5% CO2. Compound was serially diluted in DMSO (log/half log) before being diluted 1:20 with assay buffer. 7 μl of compound diluted in assay buffer was then added to cells on FLiPR tetra and fluorescence intensity measured for 5 minutes. EC50 values for compounds were determined from ten point half log scale dose-response studies and represent the concentration of compound required to […] maximal response. Curves were generated using the average of duplicate wells for each data point and analyzed using non-linear regression of four parameter dose response. Percentage Relative efficacy (RE) to an EC100 concentration of acetylcholine was reported for all compounds. The results are set out in Table 3 below in which the term “No Response” means that there was no significant response of calcium flux in the assay indicative of agonism.
On the technique in general: A change in cytosolic calcium serves as a functional read-out for many receptors and channels.

The target in another assay is human M2 receptor (Homo sapiens (Human), UniProt P08172). Briefly: In vitro M2 functional assay (intracellular calcium, FLiPR Tetra). It counts as cell-based. The conditions noted are these: for M2 EC50 / EC50: CHOK1 cells stably expressing human M2 receptor and Gα16, calcium flux, No Response = no significant response of calcium flux indicative of agonism; for activation at 10 µM: response at 10 μM compound, relative to an EC100 concentration of acetylcholine, read-out: M2 % RE @ 10 μM; for M2 % RE: relative efficacy to an EC100 concentration of acetylcholine. On the procedure:
as §1, §2, §3

Chain of human M2 receptor (P08172 whole entry): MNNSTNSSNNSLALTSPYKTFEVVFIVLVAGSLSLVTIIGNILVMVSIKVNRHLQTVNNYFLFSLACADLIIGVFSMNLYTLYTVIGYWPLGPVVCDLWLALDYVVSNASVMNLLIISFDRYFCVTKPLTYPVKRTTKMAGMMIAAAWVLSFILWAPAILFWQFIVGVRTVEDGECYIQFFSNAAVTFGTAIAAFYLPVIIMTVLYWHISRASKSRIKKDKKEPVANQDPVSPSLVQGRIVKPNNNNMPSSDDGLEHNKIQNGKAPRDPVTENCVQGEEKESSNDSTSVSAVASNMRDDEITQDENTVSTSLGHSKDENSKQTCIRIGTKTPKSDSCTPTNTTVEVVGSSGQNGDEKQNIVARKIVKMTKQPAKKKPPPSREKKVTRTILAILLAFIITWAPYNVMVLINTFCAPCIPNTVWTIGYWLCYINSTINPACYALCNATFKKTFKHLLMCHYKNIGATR

One may read the EC50 as the concentration giving half of the maximal effect. On to `CCOC(=O)N1CCC(N2CCC(c3cccc(OC)n3)CC2)CC1` [Example 32, Ethyl 4-[4-(6-methoxypyridin-2-yl)piperidin-1-yl]piperidine-1-carboxylate], for which, at human M4 receptor, the 50% effective concentration (EC50) came out at 220 nM and the Emax turned out to be 73%. Besides, the “M2 EC50” value at human M2 receptor was “No Response”.

As to `CCOC(=O)N1CCCC(N2CCC(c3cccnc3NCC3CC3)CC2)CC1` (stereo not drawn) [Example 67, Ethyl 4-(4-{2-[(cyclopropylmethyl)amino]pyridin-3-yl}piperidin-1-yl)azepane-1-carboxylate], at human M4 receptor, the 50% effective concentration (EC50) was determined as 990 nM and the Emax was determined as 37%. Also, the “M2 EC50” value at human M2 receptor was “No Response”.

With `CCOC(=O)N1CCCC(N2CCC(c3cnccc3OC)CC2)CC1` (stereo not drawn) [Example 48, Ethyl 4-[4-(4-methoxypyridin-3-yl)piperidin-1-yl]azepane-1-carboxylate], at human M4 receptor, the concentration giving a half-maximal response (EC50) is 250 nM and the Emax amounted to 63%. Besides, the “M2 EC50” value at human M2 receptor is listed as “No Response”.

For `CCOC(=O)N1CCC(N2CCC(c3ccnc(C)n3)CC2)CC1` [Example 36, Ethyl 4-[4-(2-methylpyrimidin-4-yl)piperidin-1-yl]piperidine-1-carboxylate], at human M4 receptor, the concentration giving a half-maximal response (EC50) was found to be 6730 nM and the Emax was 25%. Moreover, the “M2 EC50” value on human M2 receptor is on record as “No Response”.

In the case of `CCOC(=O)N1CCCC(N2CCC(c3cccn(CC#N)c3=O)CC2)CC1` (stereo not drawn) [Example 56, Ethyl 4-{4-[1-(cyanomethyl)-2-oxo-1,2-dihydropyridin-3-yl]piperidin-1-yl}azepane-1-carboxylate], at human M4 receptor, the EC50 worked out at 2350 nM and the Emax was found to be 24%. The “M2 EC50” value at human M2 receptor is reported as “No Response”.

`CCOC(=O)N1CCCC(N2CCC(c3cccnc3C)CC2)CC1` (stereo not drawn) [Example 41, Ethyl 4-[4-(2-methylpyridin-3-yl)piperidin-1-yl]azepane-1-carboxylate]: at human M4 receptor, the EC50 was found to be 260 nM and the Emax amounted to 54%. Further, the “M2 EC50” value on human M2 receptor was “No Response”.

As to `CCOC(=O)N1CCC(N2CCC(c3nccn3C)CC2)CC1` [Example 1, Ethyl 4-[4-(1-methyl-1H-imidazol-2-yl)piperidin-1-yl]piperidine-1-carboxylate], at human M4 receptor, the EC50 is 2360 nM and the Emax was 49%. Moreover, on human M2 receptor, the EC50 is above 10000 nM and the activation at 10 µM was found to be 34%.

In the case of `CCOC(=O)N1CCCC(N2CCC(c3cccnc3CC(C)C)CC2)CC1` (stereo not drawn) [Example 77, Ethyl 4-{4-[2-(2-methylpropyl)pyridin-3-yl]piperidin-1-yl}azepane-1-carboxylate], at human M4 receptor, the EC50 is 670 nM and the Emax turned out to be 58%. Moreover, the “M2 EC50” value on human M2 receptor was “No Response”.

For `CCOC(=O)N1CCCC(N2CCC(c3ncccc3OC)CC2)CC1` (stereo not drawn) [Example 38, Ethyl 4-[4-(3-methoxypyridin-2-yl)piperidin-1-yl]azepane-1-carboxylate], at human M4 receptor, the EC50 is 30 nM and the Emax turned out to be 92%. Moreover, on human M2 receptor, the EC50 is 160 nM and the “M2 % RE” value was 75%.

As to `CCOC(=O)N1CCCC(N2CCC(c3nc(C(F)(F)F)ncc3OC)CC2)CC1` (stereo not drawn) [Example 60, Ethyl 4-{4-[5-methoxy-2-(trifluoromethyl)pyrimidin-4-yl]piperidin-1-yl}azepane-1-carboxylate], at human M4 receptor, the half-maximal effective concentration (EC50) is 180 nM and the Emax stood at 68%. The “M2 EC50” value on human M2 receptor is listed as “No Response”.

`CCOC(=O)N1CCCC(N2CCC(n3ccc(C)n3)CC2)CC1` (stereo not drawn) [Example 16, Ethyl 4-[4-(3-methyl-1H-pyrazol-1-yl)piperidin-1-yl]azepane-1-carboxylate]: on human M4 receptor, the EC50 is 400 nM and the Emax was determined as 72%. At human M2 receptor, the EC50 is above 10000 nM and the activation at 10 µM was found to be 24%.

Regarding `CCOC(=O)N1CCCC(N2CCC(c3cncnc3C)CC2)CC1` (stereo not drawn) [Example 75, Ethyl 4-[4-(4-methylpyrimidin-5-yl)piperidin-1-yl]azepane-1-carboxylate], on human M4 receptor, the EC50 is 1010 nM and the Emax turned out to be 52%. Moreover, the “M2 EC50” value at human M2 receptor is “No Response”.

Take `CCOC(=O)N1CCCC(N2CCC(n3cccc3)CC2)CC1` (stereo not drawn) [Example 3, Ethyl 4-[4-(1H-pyrrol-1-yl)piperidin-1yl]azepane-1-carboxylate]: at human M4 receptor, the 50% effective concentration (EC50) came to 330 nM and the Emax was found to be 59%. Further, on human M2 receptor, the EC50 turned out to be 1540 nM and the “M2 % RE” value amounted to 38%.

`CCOC(=O)N1CCCC(N2CCC(c3cccnc3OC)CC2)CC1` (stereo not drawn) [Example 35, Ethyl 4-[4-(2-methoxypyridin-3-yl)piperidin-1-yl]azepane-1-carboxylate]: at human M4 receptor, the concentration giving a half-maximal response (EC50) amounted to 30 nM and the Emax was found to be 102%. Also, the “M2 EC50” value at human M2 receptor is “No Response”.

Consider `CCOC(=O)N1CCCC(N2CCC(c3cc(C)cnc3OCC)CC2)CC1` (stereo not drawn) [Example 42, Ethyl 4-[4-(2-ethoxy-5-methylpyridin-3-yl)piperidin-1-yl]azepane-1-carboxylate], for which, on human M4 receptor, the EC50 worked out at 20 nM and the Emax came out at 82%. Moreover, the “M2 EC50” value at human M2 receptor is reported as “No Response”.

For the molecule `CCOC(=O)N1CCC(N2CCC(c3nc(OC)cc(OC)n3)CC2)CC1` [Example 37, Ethyl 4-[4-(4,6-dimethoxypyrimidin-2-yl)piperidin-1-yl]piperidine-1-carboxylate], on human M4 receptor, the EC50 stood at 3340 nM and the Emax was found to be 39%. On human M2 receptor, the “M2 EC50” value is reported as “No Response”.

As to `CCOC(=O)N1CCCC(N2CCC(n3nccc3-c3ccnn3C)CC2)CC1` (stereo not drawn) [Example 7, Ethyl 4-{4-[5-(1-methyl-1H-pyrazol-5-yl)-1H-pyrazol-1-yl]piperidin-1-yl}azepane-1-carboxylate], at human M4 receptor, the EC50 was 260 nM and the Emax was 75%. On human M2 receptor, the EC50 is above 10000 nM and the activation at 10 µM came out at 26%.

In the case of `CCOC(=O)N1CCCC(N2CCC(c3nnc(C(C)C)o3)CC2)CC1` (stereo not drawn) [Example 15, Ethyl 4-(4-(5-isopropyl-1,3,4-oxadiazol-2-yl)piperidin-1-yl)azepane-1-carboxylate], at human M4 receptor, the 50% effective concentration (EC50) came to 1280 nM and the Emax worked out at 44%. Further, on human M2 receptor, the “M2 EC50” value is recorded as “No Response”.

As to `CCOC(=O)N1CCCC(N2CCC(c3nccnc3N(C)C)CC2)CC1` (stereo not drawn) [Example 49, Ethyl 4-{4-[3-(dimethylamino)pyrazin-2-yl]piperidin-1-yl}azepane-1-carboxylate], on human M4 receptor, the half-maximal effective concentration (EC50) was found to be 210 nM and the Emax amounted to 53%. Also, the “M2 EC50” value at human M2 receptor is reported as “No Response”.

As for `CCOC(=O)N1CCCC(N2CCC(c3cccnc3C3CC3)CC2)CC1` (stereo not drawn) [Example 66, Ethyl 4-[4-(2-cyclopropylpyridin-3-yl)piperidin-1-yl]azepane-1-carboxylate], at human M4 receptor, the concentration for a half-maximal effect (EC50) was 120 nM and the Emax was 84%. For the same molecule, at human M2 receptor, the “M2 EC50” value is recorded as “No Response”.

In the case of `CCOC(=O)N1CCC(N2CCC(c3cccnc3OC)CC2)CC1` [Example 34, Ethyl 4-[4-(2-methoxypyridin-3-yl)piperidin-1-yl]piperidine-1-carboxylate], on human M4 receptor, the EC50 stood at 90 nM and the Emax worked out at 90%. Besides, the “M2 EC50” value at human M2 receptor is on record as “No Response”.

Turning to `CCOC(=O)N1CCCC(N2CCC(c3cncc(N(C)C)n3)CC2)CC1` (stereo not drawn) [Example 50, Ethyl 4-{4-[6-(dimethylamino)pyrazin-2-yl]piperidin-1-yl}azepane-1-carboxylate], on human M4 receptor, the 50% effective concentration (EC50) was 460 nM and the Emax worked out at 50%. Moreover, the “M2 EC50” value at human M2 receptor is recorded as “No Response”.

Regarding `CCOC(=O)N1CCC(N2CCC(c3cccc(OCC)n3)CC2)CC1` [Example 72, Ethyl 4-[4-(6-ethoxypyridin-2-yl)piperidin-1-yl]piperidine-1-carboxylate], at human M4 receptor, the EC50 was found to be 270 nM and the Emax was 63%. Also, on human M2 receptor, the half-maximal effective concentration (EC50) is 2020 nM and the “M2 % RE” value is given as 20%.

For `CCOC(=O)N1CCCC(N2CCC(c3cccn(CC)c3=O)CC2)CC1` (stereo not drawn) [Example 57, Ethyl 4-[4-(1-ethyl-2-oxo-1,2-dihydropyridin-3-yl)piperidin-1-yl]azepane-1-carboxylate], at human M4 receptor, the EC50 worked out at 890 nM and the Emax stood at 37%. On human M2 receptor, the “M2 EC50” value is “No Response”.

With `CCOC(=O)N1CCC(N2CCC(c3ccncc3)CC2)CC1` [Example 31, Ethyl 4-[4-(pyridin-4-yl)piperidin-1-yl]piperidine-1-carboxylate], on human M4 receptor, the half-maximal effective concentration (EC50) was found to be 2260 nM and the Emax turned out to be 30%. The “M2 EC50” value at human M2 receptor was “No Response”.
